A value given as a limit tells only on which side of the number the result lay.

The first test concerns the target T1, wild type human POLγ (POLγA:WT) (Homo sapiens, UniProt P54098).
T1 sequence (P54098 1-1239): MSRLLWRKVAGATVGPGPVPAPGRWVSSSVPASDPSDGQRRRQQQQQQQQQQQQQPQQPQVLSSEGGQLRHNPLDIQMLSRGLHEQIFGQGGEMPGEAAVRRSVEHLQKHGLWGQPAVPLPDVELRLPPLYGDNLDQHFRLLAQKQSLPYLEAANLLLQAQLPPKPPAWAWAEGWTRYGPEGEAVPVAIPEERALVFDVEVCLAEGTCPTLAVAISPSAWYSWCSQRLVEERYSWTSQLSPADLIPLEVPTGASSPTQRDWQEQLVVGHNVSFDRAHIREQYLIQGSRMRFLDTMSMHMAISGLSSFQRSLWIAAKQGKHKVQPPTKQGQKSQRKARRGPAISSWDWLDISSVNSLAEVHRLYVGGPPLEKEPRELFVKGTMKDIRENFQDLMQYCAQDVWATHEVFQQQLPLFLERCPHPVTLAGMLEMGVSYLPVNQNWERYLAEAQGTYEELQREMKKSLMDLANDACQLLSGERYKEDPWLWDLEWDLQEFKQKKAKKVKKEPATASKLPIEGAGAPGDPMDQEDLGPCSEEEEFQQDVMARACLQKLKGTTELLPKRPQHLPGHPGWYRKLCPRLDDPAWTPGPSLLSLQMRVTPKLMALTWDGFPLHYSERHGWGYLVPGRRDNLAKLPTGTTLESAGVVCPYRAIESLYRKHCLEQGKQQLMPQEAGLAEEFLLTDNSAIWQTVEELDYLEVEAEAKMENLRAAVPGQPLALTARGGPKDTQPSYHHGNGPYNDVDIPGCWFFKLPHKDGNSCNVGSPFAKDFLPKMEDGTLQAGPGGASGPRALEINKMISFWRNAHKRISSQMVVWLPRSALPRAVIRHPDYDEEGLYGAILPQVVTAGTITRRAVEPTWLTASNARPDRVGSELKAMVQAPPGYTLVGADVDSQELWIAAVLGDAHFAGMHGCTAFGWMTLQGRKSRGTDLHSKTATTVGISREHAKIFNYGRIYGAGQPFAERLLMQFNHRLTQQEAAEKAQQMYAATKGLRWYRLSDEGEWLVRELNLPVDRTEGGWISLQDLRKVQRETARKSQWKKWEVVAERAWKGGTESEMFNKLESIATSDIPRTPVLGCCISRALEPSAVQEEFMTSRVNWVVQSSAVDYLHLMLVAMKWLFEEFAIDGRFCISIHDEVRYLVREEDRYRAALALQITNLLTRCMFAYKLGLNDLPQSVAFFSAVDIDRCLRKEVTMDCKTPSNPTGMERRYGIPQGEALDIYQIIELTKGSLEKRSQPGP
T1 sequence (Q9UHN1 1-485 partner): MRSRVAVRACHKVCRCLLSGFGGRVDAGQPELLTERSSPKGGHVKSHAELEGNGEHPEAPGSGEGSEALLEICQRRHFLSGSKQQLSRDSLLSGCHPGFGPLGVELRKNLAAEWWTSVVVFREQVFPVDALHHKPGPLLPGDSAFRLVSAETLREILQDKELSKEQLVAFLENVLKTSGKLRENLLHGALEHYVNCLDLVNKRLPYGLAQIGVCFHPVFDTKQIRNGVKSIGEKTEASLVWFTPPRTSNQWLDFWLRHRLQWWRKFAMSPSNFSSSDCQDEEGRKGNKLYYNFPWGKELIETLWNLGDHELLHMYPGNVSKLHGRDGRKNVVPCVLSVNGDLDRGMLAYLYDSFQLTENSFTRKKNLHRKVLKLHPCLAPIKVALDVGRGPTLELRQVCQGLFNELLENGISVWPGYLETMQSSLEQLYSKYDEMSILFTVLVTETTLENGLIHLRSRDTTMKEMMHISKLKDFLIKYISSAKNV
Put plainly: DNA polymerization assay, wild type POLγ. It is filed as biochemical. The following applies: 100 μM dNTP, read-out: WT AC50 (μM) at 100 μM. Here is the method: DNA Polymerization Assay to Monitor Effects on Human Wildtype POLγ and Four Disease-Causing Mutant Variants of Human POLγ.
The ability of small molecules to stimulate the polymerase activity of POLγ was analyzed in a quantitative fluorescence SYBR Green I assay with fluorescence intensity (FI) readout.
In the presence of dNTPs, wild type human POLγ and mutant derivatives thereof were incubated with single-stranded, circular M13mp18 ssDNA hybridized to a short DNA oligonucleotide that functions as a primer for initiation of DNA synthesis. POLγ and mutant derivatives thereof will extend the primer and use the M13mp18 molecule as a template to synthesize long stretches of double-stranded DNA. SYBR Green I, which is a double-stranded DNA-binding dye, was used to quantify formation of double-stranded DNA in the reaction. When bound to double-stranded DNA, SYBR Green I fluorescence increases by up to 100-fold.
The assay was performed in the 384-well plate format. Upon addition of compounds, changes in double-stranded DNA synthesis activity can be monitored by following effects on fluorescent intensity.
The reactions also contained the accessory POLγB subunit, and the human mitochondrial single-stranded DNA binding protein (mtSSB).
The DNA template mixture used in the assay contained 0.5 nM primed M13 mp18 ssDNA, 400 nM mtSSB, 0.1 mM Tris-HCl (pH 8.0), 0.1 mM dNTP, 10 mM MgCl2, 0.1 mg/mL BSA, 1 mM TCEP solution, and 0.02% Triton X-100. The DNA template mixture for the wild type protein contained either 100 μM dNTP, 1 μM dNTP, or 0.1 μM dNTP, designated in Table 2 as 100 μM, 1 μM, and 0.1 μM, respectfully.
Microplates with compounds (0.1 μL in each well) to be tested in the assay were prepared from 10 mM compound stocks in 100% DMSO, and equal amounts of DMSO without any compound were added to positive and negative control wells.
The protein mixture was dispensed (5 μL into each well) into compound plates and incubated at 37° C. for 15 minutes. After incubation, 5 μL of the DNA template mixture was dispensed into each well. The plates were then incubated at 37° C. for 2 hours.
During incubation, a combined stop buffer and detection reagent solution was prepared. The buffer contained 25 mM EDTA (pH 8.0), 0.02% Triton X-100, and SYBR Green I [Invitrogen] diluted 10,000× (for fluorescent readout). EDTA will stop the enzymatic reaction by chelating magnesium ions.
As to `Cc1cc(S(=O)(=O)Nc2cccc(C(=O)N3CCCC4(CC4)C3)c2)c(C)cc1Cl` [Example 105, N-(3-(5-azaspiro[2.5]octane-5-carbonyl)phenyl)-4-chloro-2,5-dimethylbenzenesulfonamide], the AC50 was above 10 µM.

As for `Cc1cc(S(=O)(=O)Nc2cccc(C(=O)N3CCCOC(C)(C)C3)c2)c(C)cc1Cl` [Example 106, 4-chloro-N-(3-(2,2-dimethyl-1,4-oxazepane-4-carbonyl)phenyl)-2,5-dimethylbenzenesulfonamide], the AC50 turned out to be 32 µM.

As to `Cc1cc(S(=O)(=O)Nc2cccc(C(=O)N3CCc4cn[nH]c4C3)c2)c(C)cc1Cl` [Example 107, 4-chloro-2,5-dimethyl-N-(3-(4,5,6,7-tetrahydro-1H-pyrazolo[3,4-c]pyridine-6-carbonyl)phenyl)benzenesulfonamide], the AC50 came out at 1 µM.

As for `Cc1cc(S(=O)(=O)Nc2cccc(C(=O)N3C[C@H](C)[C@@H](N)C3)c2)c(C)cc1Cl` [Example 108, N-(3-((3R,4S)-3-amino-4-methylpyrrolidine-1-carbonyl)phenyl)-4-chloro-2,5-dimethylbenzenesulfonamide], the AC50 came to 24 µM.

As for `Cc1cc(S(=O)(=O)Nc2cccc(C(=O)N(C)c3ccccn3)c2)c(C)cc1Cl` [Example 109, 3-((4-chloro-2,5-dimethylphenyl)sulfonamido)-N-methyl-N-(pyridin-2-yl)benzamide], the half-maximal activity concentration (AC50) was above 100 µM.

Regarding `Cc1cc(NS(=O)(=O)c2cc(C)c(Cl)cc2C)cc(-c2ncc(C)s2)c1` [Example 110, 4-chloro-2,5-dimethyl-N-(3-methyl-5-(5-methylthiazol-2-yl)phenyl)benzenesulfonamide], the AC50 was above 100 µM.

As for `Cc1cnc(-c2cc(NS(=O)(=O)c3cc(C)c(Cl)cc3C)ccc2Cl)s1` [Example 111, 4-chloro-N-(4-chloro-3-(5-methylthiazol-2-yl)phenyl)-2,5-dimethylbenzenesulfonamide], the AC50 was 3 µM.

`Cc1cc(S(=O)(=O)Nc2cccc(C(=O)N(C(C)C)C3COC3)c2)c(C)cc1Cl` [Example 112, 3-((4-chloro-2,5-dimethylphenyl)sulfonamido)-N-isopropyl-N-(oxetan-3-yl)benzamide]: the half-maximal activity concentration (AC50) turned out to be 20 µM.

Regarding `Cc1cc(Cl)ccc1S(=O)(=O)Nc1cccc(C(=O)N2CCC[C@H]2C)c1` [Example 116, (R)-4-chloro-2-methyl-N-(3-(2-methylpyrrolidine-1-carbonyl)phenyl)benzenesulfonamide], the AC50 is above 10 µM.

As for `Cc1cc(S(=O)(=O)Nc2cccc(C(=O)N3CCCC3)c2)c(C)cc1Cl` [Example 119, 4-chloro-2,5-dimethyl-N-(3-(pyrrolidine-1-carbonyl)phenyl) benzenesulfonamide], the AC50 was above 10 µM.

On to `Cc1ccc(S(=O)(=O)Nc2csc(-c3ccccc3)n2)c(C)c1` [Example 123, 2,4-dimethyl-N-(2-phenylthiazol-4-yl)benzenesulfonamide], for which the AC50 amounted to 3 µM.

Turning to `Cc1cc(F)ccc1S(=O)(=O)Nc1csc(-c2ccccc2)n1` [Example 124, 4-fluoro-2-methyl-N-(2-phenylthiazol-4-yl)benzenesulfonamide], the AC50 came out at 1 µM.

Take `O=S(=O)(Nc1csc(-c2ccccc2)n1)c1ccccc1Cl` [Example 125, 2-chloro-N-(2-phenylthiazol-4-yl)benzenesulfonamide]: the AC50 is above 10 µM.

As for `Cc1cc(S(=O)(=O)Nc2nsc(-c3ccccc3)n2)c(C)cc1Cl` [Example 131, 4-chloro-2,5-dimethyl-N-(5-phenyl-1,2,4-thiadiazol-3-yl)benzenesulfonamide], the AC50 is 1 µM.

Turning to `Cc1ccc(C)c(S(=O)(=O)Nc2csc(-c3ccccc3)n2)c1` [Example 134, 2,5-dimethyl-N-(2-phenylthiazol-4-yl)benzenesulfonamide], the AC50 is 0.3 µM.

Take `Cc1cc(Cl)ccc1S(=O)(=O)Nc1csc(-c2ccccc2)n1` [Example 135, 4-chloro-2-methyl-N-(2-phenylthiazol-4-yl)benzenesulfonamide]: the AC50 is 0.6 µM.

As for `Cc1cc(S(=O)(=O)Nc2csc(-c3ccccc3)n2)c(Cl)cc1F` [Example 136, 2-chloro-4-fluoro-5-methyl-N-(2-phenylthiazol-4-yl)benzenesulfonamide], the half-maximal activity concentration (AC50) is 0.8 µM.

With `Cc1cc(S(=O)(=O)Nc2nc(-c3ccccc3)no2)c(C)cc1Cl` [Example 143, 4-chloro-2,5-dimethyl-N-(3-phenyl-1,2,4-oxadiazol-5-yl)benzenesulfonamide], the AC50 was above 10 µM.

Turning to `O=S(=O)(Nc1csc(-c2ccccc2)n1)c1cccc(C(F)(F)F)c1` [Example 151, N-(2-phenylthiazol-4-yl)-3-(trifluoromethyl)benzenesulfonamide], the AC50 is above 10 µM.

For the compound `O=S(=O)(Nc1csc(-c2ccccc2)n1)c1ccc2c(c1)CCO2` [Example 152, N-(2-phenylthiazol-4-yl)-2,3-dihydrobenzofuran-5-sulfonamide], the AC50 is above 10 µM.

Turning to `Cc1cc(S(=O)(=O)Nc2ccc3c(c2)CC(=O)N3)c(C)cc1Cl` [Example 185, 4-chloro-2,5-dimethyl-N-(2-oxoindolin-5-yl)benzenesulfonamide], the AC50 is 6 µM.

As to “(R)-2,5-dimethyl-N-(3-(3-methylmorpholine-4-carbonyl)phenyl)benzenesulfonamide [Example 1]”, the AC50 turned out to be 2 µM.

The same test, now with this note: WT AC50 (μM) at 100 μM, 100 μM dNTP.
For `Cc1cc(S(=O)(=O)Nc2noc(-c3ccccc3)n2)c(C)cc1Cl` [Example 142, 4-chloro-2,5-dimethyl-N-(5-phenyl-1,2,4-oxadiazol-3-yl)benzenesulfonamide], the AC50 was above 10 µM.

As a reminder, the AC50 is the midpoint of the concentration-response curve, whichever way the signal moves.
